Several values for one entry are separate records, joined by “and”; a condition that tells them apart may be missing. Equal values may be shown once.
How the values were obtained:
[1] = test system: oxazolone-induced ear swelling; assay: Immune Suppression, Cellular (oxazolone ear thickness); type: in vivo, mouse; conditions: IP, Peptide 100 mg/kg × 5, Cyclophosphamide 30 mg/kg × 5
Protocol: (§1) For in vivo assay, distilled water and saline was used as vehicle in oral and intraperitoneal administration, respectively. Dosing volume was 20 ml/kg for mice or 10 ml/kg for rats.
Groups of 5 ICR derived male mice weighing 22±1 gms were used. The preshaved abdominal surface was sensitized by application of oxazolone 0.1 ml of 5% solution. […] After additional four days, the animals were challenged by secondary application of oxazolone (0.025 ml of 5% solution) to the right ear. After a further 24 hours, each mouse was sacrificed and ear thickness measured with a Dyer Model micrometer gauge. A 30 percent or more (≧30%) decrease relative to the vehicle control group was considered significant and indicated possible immunosuppressant activity.

Histamine H3 = target: T1, Histamine H3 (Rattus norvegicus, UniProt Q9QYN8); assay: Histamine H3 radioligand binding; conditions: historical value
T1 construct: rat brain; from tissue; host or cells: rat brain
Protocol: (§2) The peptide was further screened in vitro in a variety of enzyme and biochemical assays. Methods employed were adapted from the scientific literature to maximize reliability and reproducibility. The primary literature reference for each assay is listed in Table 11 opposite the results for each assay.
(§3) Results presented in Table 10, “Results,” are the average of duplicate determinations, unless otherwise noted.
(§4) Reference compounds were tested concurrently at 5 concentrations as an integral part of each assay to ensure the validity of the results obtained.
Radioligand binding assays were performed under conditions described in Table 8, “Experimental Conditions.” Radioligands employed in this study are given in Table 8, and commercial sources and catalog numbers of the radioligands are provided in Table 7, “Material Sources.” Unlabeled, blocking ligands employed this study are listed in Table 8, “Experimenal Conditions,” along with the commercial sources and catalog number of the unlabeled ligand. The concurrent reference compound (control) employed in each assay is listed in Table 9, “Reference Compound Data,” along with the commercial supplier and catalog number of the compound. […]
Maximum total binding and nonspecific binding were determined each time each assay was run. […]
Where inhibition constants (Ki) are presented, the Ki values were calculated using the equation of Cheng and Prusoff (Cheng, Y., Prusoff, W. H., Biochem. Pharmacol. […], 1973) using the observed IC50 of the tested compound, the concentration of radioligand employed in the assay, and the historical values for the Kd of the ligand (obtained experimentally). Where presented, the Hill Coefficient (nH), defining the scope of the competitive binding curve, was calculated using GraphPad Prism. […] Where IC50, Ki, and/or Hill Slope data is presented without Standard Error of the Mean (SEM), data are insufficient to be quantitative, and the values presented (Ki, IC50, nH) should be interpreted with caution. […]

[2] = target: Protein Kinase C, Non-Select.; assay: Protein Kinase C, Non-Select. enzyme assay; type: biochemical, rat; conditions: historical value; read-out: ^1IC, (IC50 of reference compound)
Protocol: as §2, §3, §4
Enzyme assays were performed under conditions described in Table 8, “Experimental Conditions.”. The commercial suppliers and catalog numbers of substrates employed in this study are given in Table 7, “Material Sources.” The name, commercial source, and catalog numbers of concurrent reference compounds (controls) employed in this study are given in Table 9, “Reference Compound Data.” The reaction catalyzed by each enzyme is listed in Table 8, “Experimental Conditions.”
Biochemical assay results are presented in Table 10, as the percent inhibition of specific binding or activity, and unless noted are the average of duplicate tubes tested at each concentration.

[3] = test system: Adjuvant Induced Arthritis; assay: Adjuvant Induced Arthritis Model; type: in vivo; conditions: rat, 20 mg per KG body weight orally once per day for 14 days, Day 14
Protocol: Adjuvant Induced Arthritis Model: Male Sprague-Dawley rats (160-180 g) were sensitized by injecting Fruend's Complete Adjuvant (0.5% suspension of killed mycobacterium tuberculosis (H37RA, Difco in mineral oil)). 0.05 ml was administered intradermally at a plantar site on the right hind leg of each rat. The test materials were given orally (by gavage) in 0.5% methylcelluose, at a dose level of 20 milligrams per kilo body weight, and given once per day for 14 days. The administration was started the day after sensitization. The left hind paw was measured just before sensitization and on Day 14, and the plantar edema inhibitory rate and the body weight gain rate were determined in comparison with the nonsensitized rat groups. The paw weights for each group in each test run were averaged. Activity was calculated as follows: [formula]
The Anti-inflammatory response is the difference in the mean foot volume. […] FIG. 4.

[4] = test system: ovalbumin-induced bronchoconstriction; assay: Pulmonary, Histamine H3 (ovalbumin-induced bronchoconstriction); type: in vivo, guinea pig; conditions: Peptide PO 10 mg/kg, R-α-methylhistamine IV 30 mg/kg
Protocol: as §1
A group of Duncan Hartley derived male or female guinea pigs weighing 250±50 gms were anesthetized with pentobarbital sodium (50 mg/kg IP plus an additional 15 mg/kg IP if required) and succinylcholine chloride (2 mg/animal IP) was subsequently administered to prevent spontaneous respiration. Body temperature was maintained at 37° to 38° C. The trachea was cannulated and the guinea pig ventilated with a Harvard rodent respirator in a closed system. Tracheal pressure (TP) was recorded through a side-arm of the cannula connected to a P23ID Statham transducer. Respiratory rate set at 50 strokes/minute with a stroke volume (approximately 1 ml/100 g) sufficient to produce a baseline tracheal pressure of 6 cm H2O. Mean arterial pressure was monitored from a cannulated carotid artery, and heart rate was obtained from chest electrodes arranged for lead II. The jugular vein was cannulated for IV vehicle or drug administration in a volume of 1 ml/kg. Guinea pigs were sensitized with IP injections of ovalbumin 0.5 μg+Al(OH)3 1 mg (0.5 ml/animal) on days 1, and boosted with same dosage of ovalbumin and Al(OH)3 vaccine on day 8; and the animals were ready to be challenged between days 19 and 23 to get a submaximal ovalbumin (50 μg/kg IV)-induced bronchoconstriction, reflected as an increase in tracheal pressure (cm H2O). […]. Test substances were administered PO (10 mg/kg) at 60 minutes before ovalbumin (50 μg/kg IV) challenge in 3 guinea pigs. Tracheal pressure, blood pressure and heart rate were measured immediately before and after ovalbumin challenge.

histamine H3 receptor = target: T2, histamine H3 receptor (Cavia porcellus, UniProt Q9JI35); assay: Histamine H3 Agonism/Antagonism, guinea pig ileum; type: cell-based; conditions: Peptide 30 μM, Thioperamide 0.3 μM; for Agonism, Ave.: R(α)-Methylhistamine 0.3 μM; for Agonism: relaxation within 5 minutes relative to 0.3 μM R-α-methylhistamine, R(α)-Methylhistamine 0.3 μM (0.1 printed in r13)
T2 construct: ileum obtained from Duncan Hartley derived male or female guinea pigs; from tissue; host or cells: guinea pig ileum segment, field-stimulated
Protocol: A segment of ileum obtained from Duncan Hartley derived male or female guinea pigs weighing 325±25 gms and sacrificed by CO2 overexposure were used. The tissue was placed under 0.5 g tension in a 10 ml bath containing Kreb's solution pH 7.4 and pyrilamine (0.3 μM) at 32° C. and subjected to field stimulation (70% of maximum voltage, 0.1 Hz, 0.5 millisecond). Test substance (30 μM)-induced reduction of isometrically recorded contractions 50 percent or more (≧50%) within 5 minutes, relative to control 0.3 μM R-α-methylhistamine response, indicated possible histamine H3 receptor agonist activity. At a test substance concentration where no significant agonist activity was seen, ability to inhibit R-α-methylhistamine-induced response by 50 percent or more (≧50%) indicated histamine H3 receptor antagonist activity. Each concentration was tested on two separate preparations.

[5] = test system: DNBS-induced distal colitis; assay: Inflammation, Inflammatory Bowel Disease (DNBS distal colitis); type: in vivo, rat; conditions: PO, Peptide 30 mg/kg × 7, Sulfasalazine 300 mg/kg × 7
Protocol: as §1
Groups of 3 Sprague-Dawley derived male rats weighing 150±20 gms and fasted for 24 hours were used. Distal colitis was induced by intra-colonic instillation of DNBS (2,4-dinitrobenzene sulfonic acid, 30 mg in 0.5 ml ethanol 30%) after which air (2 ml) was gently injected through the cannula to ensure that the solution remains in the colon. Test substance was administered PO (30 mg/kg) at 24 and 2 hours before DNBS instillation. Then, the animals received test compound every 24 hours for 5 consecutive days. The control group was given vehicle alone as compound dosing pattern. The animals were sacrificed 24 hours after the final dose of test compound administration and each colon was removed and weighed. Colon-to-body weight ratio was obtained from the percentage of the comparison between the animal colon weight and body weight on the 8th day. A 30 percent or more (±30%) reduction in colon-to-body weight ratio relative to the vehicle treated control group was considered significant.

PAF-induced mortality = assay: Platelet Activating Factor (PAF) Antagonism; type: in vivo, mouse; conditions: Peptide 100 mg/kg, WEB-2086 3 mg/kg
Protocol: as §1
Groups of 5 male ICR mice weighing 22±2 gms were employed. At dose of 100 mg/kg test substance dissolved in a vehicle of distilled water were administered orally. The control group received vehicle alone. At 60 minutes after dosing, the animals were injected intravenously PAF-acether ([…] IV, dissolved in 0.25% BSA). One hour later, the survival animals were recorded. The prevention of PAF-induced mortality in 50 percent or more (≧50%) of mice indicated significant activity.

Sarcoma 180 tumor = assay: Anti-Cancer Activity Against Mouse Tumor Sarcoma 180; type: in vivo; conditions: 10 mg/kg
Protocol: This model has been used extensively as indicative of neovascularization in mammals inasmuch as the tumor so implanted is quickly vascularizing.
Experimental Design: All mice were weighed at test initiation and test termination. The animals were divided into three groups. The Sarcoma 180 tumor was made up from a passage mouse to furnish […] per 0.1 mL inoculum. The cells were injected into the left leg hamstring muscle mass. The was delivered to the mice by I.P. injections, or gavage on days 1-5.
At the termination of the experiments, the mice were weighed and the left rear leg was amputated at the thigh. The skin was removed from the leg to expose the site at which the tumor was located. […].

T2 sequence (Q9JI35 whole entry): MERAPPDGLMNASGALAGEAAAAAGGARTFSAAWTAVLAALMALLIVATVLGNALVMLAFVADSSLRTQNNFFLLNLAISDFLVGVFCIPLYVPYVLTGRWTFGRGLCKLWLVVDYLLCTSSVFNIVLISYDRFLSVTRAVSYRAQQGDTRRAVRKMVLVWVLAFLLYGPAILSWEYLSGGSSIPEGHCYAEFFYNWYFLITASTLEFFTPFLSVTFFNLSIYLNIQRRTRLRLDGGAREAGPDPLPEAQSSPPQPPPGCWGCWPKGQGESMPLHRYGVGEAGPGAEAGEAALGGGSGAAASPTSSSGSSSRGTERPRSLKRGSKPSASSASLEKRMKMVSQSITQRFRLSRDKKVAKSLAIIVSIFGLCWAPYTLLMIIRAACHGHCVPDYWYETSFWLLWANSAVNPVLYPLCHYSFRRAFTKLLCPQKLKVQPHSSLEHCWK
T1 sequence (Q9QYN8 whole entry): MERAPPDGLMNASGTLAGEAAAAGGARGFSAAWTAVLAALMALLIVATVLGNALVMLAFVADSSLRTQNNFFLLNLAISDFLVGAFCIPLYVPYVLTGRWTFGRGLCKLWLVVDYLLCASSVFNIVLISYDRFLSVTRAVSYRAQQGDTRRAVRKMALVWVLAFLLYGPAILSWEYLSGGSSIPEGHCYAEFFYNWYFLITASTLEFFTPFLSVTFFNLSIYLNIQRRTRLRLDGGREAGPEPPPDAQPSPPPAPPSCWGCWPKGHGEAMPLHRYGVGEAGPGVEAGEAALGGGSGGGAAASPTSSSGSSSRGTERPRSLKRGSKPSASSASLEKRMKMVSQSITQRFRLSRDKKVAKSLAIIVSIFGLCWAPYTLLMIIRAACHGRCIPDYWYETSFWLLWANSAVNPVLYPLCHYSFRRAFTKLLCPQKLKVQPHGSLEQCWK

O=P1(N(CCCl)CCCl)NCCCO1 (stereo not drawn) [Cyclophosphamide, Cyclophosphamide Monohydrate]
% INH. ([1]; decrease of net ear thickness relative to vehicle control): 51% | Thickness Net, X (group mean) ([1]; group mean): 13.4 × 0.1 mm | Thickness Net ([1]; individual mouse, R. Ear minus L. Ear, Monohydrate): 16 × 0.1 mm and 10 × 0.1 mm and 14 × 0.1 mm and 7 × 0.1 mm and 20 × 0.1 mm | Thickness R. Ear ([1]; individual mouse, challenged right ear, 24 hours after oxazolone challenge, Monohydrate): 38 × 0.1 mm and 26 × 0.1 mm and 32 × 0.1 mm and 23 × 0.1 mm and 40 × 0.1 mm | Thickness L. Ear ([1]; individual mouse, left ear, Monohydrate): 22 × 0.1 mm and 16 × 0.1 mm (2×) and 18 × 0.1 mm and 20 × 0.1 mm

CNCCc1cnc[nH]1 [NAMH]
IC50 (Histamine H3; read-out: ^1IC, (IC50 of reference compound)): 2.9 nM | Ki (Histamine H3; read-out: ^1K1 (Ki of reference ligand)): 0.75 nM

CC1CNCCN1S(=O)(=O)c1cccc2cnccc12 (stereo not drawn) [Peptide H-7, reference compound]
IC50 [2]: 35000 nM

CCCCC1C(=O)N(c2ccccc2)N(c2ccccc2)C1=O [Phenylbutazone]
anti-inflammatory response (percent inhibition) [3]: 112.2%

C[C@@H](N)Cc1c[nH]cn1 [R (α)-Methylhistamine, R-α-Methyl histamine, reference compound]
Inc. of TP X ± SEM ([4]; group mean, N=3): 11.3 ± 7.2 cm H2O | Inc. of TP Ind. ([4]; individual guinea pig, tracheal pressure after ovalbumin 50 μg/kg IV): 8.5 cm H2O and 25.0 cm H2O and 0.5 cm H2O | % INH. ([4]; inhibition of induced bronchoconstriction relative to vehicle): 61.6% | Agonism, Ave. (histamine H3 receptor; average of two preparations): 100% | Agonism (histamine H3 receptor; individual preparation): 100%

O=C(O)c1cc(/N=N/c2ccc(S(=O)(=O)Nc3ccccn3)cc2)ccc1O [Sulfasalazine]
Ratio Net ([5]; group mean minus blank-control): 0.181% | Ratio Ind., X (group mean) ([5]; group mean): 0.551% | Ratio Ind. (colon-to-body weight ratio) ([5]; individual rat, Colon (g)/8th B.W. × 100%): 0.496% and 0.508% and 0.650% | % INH. ([5]; reduction in colon-to-body weight ratio relative to vehicle control): 49%

S=C(NC1CCCCC1)N1CCC(c2cnc[nH]2)CC1 [Thioperamide]
Agonism, Ave. (histamine H3 receptor; average of two preparations): 0% | Antagonism, Ave. (histamine H3 receptor; average of two preparations): 93% | Antagonism (histamine H3 receptor; individual preparation, reduction of 0.3 μM R(α)-methylhistamine-induced relaxation): 90% and 96% | Agonism (histamine H3 receptor; individual preparation): 0%

Cc1nnc2n1-c1sc(CCC(=O)N3CCOCC3)cc1C(c1ccccc1Cl)=NC2 [WEB-2086, reference compound]
% Protection (PAF-induced mortality; PO one hour before PAF-acether 100 μg/kg IV): 60% | No. of Survival (PAF-induced mortality; of 5 mice, one hour after PAF-acether 100 μg/kg IV, PO one hour before): 3

C[C@]12CCC(=O)C=C1CC[C@@H]1[C@@H]2[C@@H](O)C[C@@]2(C)[C@H]1CC[C@]2(O)C(=O)CO [hydrocortisone]
anti-inflammatory response (percent inhibition) [3]: 132.6%

LEU-PRO-PRO-SER-ARG [synthetic peptide (crude 60%)]
% tumor inhibition (Sarcoma 180 tumor; I.P. injections or gavage on days 1-5, 6 mice): 58.6% | Mean tumor wt. gain, gm (Sarcoma 180 tumor; net tumor weight, I.P. injections or gavage on days 1-5, 6 mice): 1.45 gm

— patent US6767890B1, “Peptides having anti-cancer and anti-inflammatory activity” (priority 1998, dated 2004)
